The inhibition is the change of the read-out against control, counted positive when it falls.

SMILES strings stand for the structures. Bounds are passed on as bounds.

The record followed here is patent publication EP4740948A1 (Dong Wha Pharm. Co., Ltd., priority 2023, dated 2025).

One test concerns SW-13 cells. Briefly: Cancer cell proliferation inhibition (Cell Counting Kit-8), adrenal cancer cell line. It is filed as cell-based. The conditions noted are these: Homo sapiens, SW13, 264 h, 1000 nM, cultured seven to 11 days; read-out: % inhibition rate SW-13. Summed up: (§1)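 CCK-8 readout after 7–11 day culture with 1000 nM compound; seeding 100–1,000 cells/well in 10% FBS medium (RPMI1640, McCoy's 5a, L-15 or DMEM). % inhibition vs untreated control.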

The target of the next test is EZH2 (Homo sapiens, UniProt Q15910). Briefly: AlphaLISA enzyme activity inhibition, EZH2. It is filed as biochemical. The conditions noted are these: for inhibition at 0.005 µM: 5nM test substance; for inhibition at 0.01 µM: 10nM test substance. As to the method: (§2) In order to confirm the EZH1 and/or EZH2 activity inhibitory effect of the 1,3-benzodioxole derivative compounds represented by chemical formula I of the present invention, the activity was measured using an AlphaLISA test method. The test substance dissolved in dimethylsulfoxide (DMSO) was diluted in a test solution (20 mM Tris pH 8.0, 0.1% BSA, 0.01% Triton X-100, 0.5 mM DTT) according to a final treatment concentration (5 nM or 10 nM) and mixed with EZH1 and EZH2, respectively, and then histone H3 peptide and S-adenosylmethionine (SAM) were added to initiate an enzyme reaction. An acceptor bead was added thereto after reaction for two hours and subjected to an additional reaction for one hour, after which a donor bead was added thereto. After an additional reaction for 30 minutes, the reaction was completed. An activity was measured using the Magellan program on a Spark10M instrument. DMSO was used as a control group, an inhibition rate of enzyme activity was calculated using a following equation, and the results thereof are shown in Table 1 below. [formula]
A general note: Bead proximity is the source of the signal in Alpha formats.

The next test has as its target EZH1 (Homo sapiens, UniProt Q92800). Briefly: AlphaLISA enzyme activity inhibition, EZH1. It is filed as biochemical. The conditions noted are these: for inhibition at 0.005 µM: 5nM test substance; for inhibition at 0.01 µM: 10nM test substance. As to the method:
as §2

A further test concerns G401 cells. Description: Cancer cell proliferation inhibition (Cell Counting Kit-8), rhabdoid tumor cell line. It is filed as cell-based. The conditions noted are these: 1000 nM, cultured seven to 11 days; for inhibition at 1 µM: Homo sapiens, G-401, 264 h, read-out: % inhibition rate G401; for % inhibition rate G401: 1 µM. Summed up:
(§3)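 Single 1000 nM dose of test substance, applied to cells seeded at 100–1,000 per well in 10% FBS medium, then culture for seven to 11 days. CCK-8 read-out; inhibition rate expressed as percent relative to untreated control.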
(In general: Tetrazolium assays rely on reduction of a dye to a coloured formazan, in cell work by metabolically active cells.)

In the next test the test system is Lovo cells. Description: Cancer cell proliferation inhibition (Cell Counting Kit-8), colorectal cancer cell line. The conditions noted are these: 1000 nM, cultured seven to 11 days; for inhibition at 1 µM: Homo sapiens, LoVo, 264 h, read-out: % inhibition rate LoVo; for % inhibition rate LoVo: 1 µM. It is filed as cell-based. Summed up:
as §1

Another test has as its system MKN-45 cells. Description: Cancer cell proliferation inhibition (Cell Counting Kit-8), gastric cancer cell line. It is filed as cell-based. The conditions noted are these: Homo sapiens, MKN-45, 264 h, 1000 nM, cultured seven to 11 days; read-out: % inhibition rate MKN -45. An outline of the steps: as §3
In the next test the test system is NCI-H1299 cells. Briefly: Cancer cell proliferation inhibition (Cell Counting Kit-8), lung cancer cell line. It is filed as cell-based. The conditions noted are these: Homo sapiens, NCI-H1299, 264 h, 1000 nM, cultured seven to 11 days; read-out: % inhibition rate NCI-H129 9. An outline of the steps:
as §1

In another test the test system is MIA-PaCa-2 cells. Description: Cancer cell proliferation inhibition (Cell Counting Kit-8), pancreatic cancer cell line. It is filed as cell-based. The conditions noted are these: Homo sapiens, MIA PaCa-2, 264 h, 1000 nM, cultured seven to 11 days; read-out: % inhibition rate MIA-Paca2. An outline of the steps: as §1

EZH2, sequence (Q15910 whole entry, species assumed): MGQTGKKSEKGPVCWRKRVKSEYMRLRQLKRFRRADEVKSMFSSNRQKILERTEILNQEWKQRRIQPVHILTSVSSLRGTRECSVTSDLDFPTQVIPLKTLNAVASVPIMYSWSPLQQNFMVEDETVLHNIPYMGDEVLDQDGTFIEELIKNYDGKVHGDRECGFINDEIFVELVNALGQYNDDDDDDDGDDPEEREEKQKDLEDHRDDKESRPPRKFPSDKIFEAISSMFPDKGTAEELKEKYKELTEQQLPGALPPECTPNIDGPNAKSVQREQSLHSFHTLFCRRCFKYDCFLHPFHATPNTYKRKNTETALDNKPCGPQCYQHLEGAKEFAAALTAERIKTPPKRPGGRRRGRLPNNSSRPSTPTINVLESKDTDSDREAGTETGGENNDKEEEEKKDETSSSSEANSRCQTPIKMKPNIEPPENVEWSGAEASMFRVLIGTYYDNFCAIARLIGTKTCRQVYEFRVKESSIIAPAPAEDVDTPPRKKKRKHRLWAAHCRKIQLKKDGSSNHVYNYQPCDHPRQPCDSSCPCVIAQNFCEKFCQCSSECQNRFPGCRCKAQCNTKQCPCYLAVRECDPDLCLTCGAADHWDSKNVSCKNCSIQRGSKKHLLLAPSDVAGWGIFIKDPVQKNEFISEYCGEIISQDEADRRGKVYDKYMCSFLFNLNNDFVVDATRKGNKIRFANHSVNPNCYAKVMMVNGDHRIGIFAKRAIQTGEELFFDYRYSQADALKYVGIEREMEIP
EZH2, sequence (O75530 whole entry partner, species assumed): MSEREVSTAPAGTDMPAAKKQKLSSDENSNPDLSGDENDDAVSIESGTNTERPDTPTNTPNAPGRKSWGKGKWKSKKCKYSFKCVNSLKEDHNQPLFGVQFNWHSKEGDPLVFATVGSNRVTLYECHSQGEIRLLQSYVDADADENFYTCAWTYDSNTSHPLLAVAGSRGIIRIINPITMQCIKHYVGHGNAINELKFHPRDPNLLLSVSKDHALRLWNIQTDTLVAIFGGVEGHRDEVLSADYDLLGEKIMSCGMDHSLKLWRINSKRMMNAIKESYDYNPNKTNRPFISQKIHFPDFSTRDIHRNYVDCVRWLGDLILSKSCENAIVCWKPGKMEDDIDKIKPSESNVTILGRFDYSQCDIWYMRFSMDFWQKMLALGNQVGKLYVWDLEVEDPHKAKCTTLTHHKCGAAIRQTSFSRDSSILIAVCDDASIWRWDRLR
EZH2, sequence (Q15022 whole entry partner, species assumed): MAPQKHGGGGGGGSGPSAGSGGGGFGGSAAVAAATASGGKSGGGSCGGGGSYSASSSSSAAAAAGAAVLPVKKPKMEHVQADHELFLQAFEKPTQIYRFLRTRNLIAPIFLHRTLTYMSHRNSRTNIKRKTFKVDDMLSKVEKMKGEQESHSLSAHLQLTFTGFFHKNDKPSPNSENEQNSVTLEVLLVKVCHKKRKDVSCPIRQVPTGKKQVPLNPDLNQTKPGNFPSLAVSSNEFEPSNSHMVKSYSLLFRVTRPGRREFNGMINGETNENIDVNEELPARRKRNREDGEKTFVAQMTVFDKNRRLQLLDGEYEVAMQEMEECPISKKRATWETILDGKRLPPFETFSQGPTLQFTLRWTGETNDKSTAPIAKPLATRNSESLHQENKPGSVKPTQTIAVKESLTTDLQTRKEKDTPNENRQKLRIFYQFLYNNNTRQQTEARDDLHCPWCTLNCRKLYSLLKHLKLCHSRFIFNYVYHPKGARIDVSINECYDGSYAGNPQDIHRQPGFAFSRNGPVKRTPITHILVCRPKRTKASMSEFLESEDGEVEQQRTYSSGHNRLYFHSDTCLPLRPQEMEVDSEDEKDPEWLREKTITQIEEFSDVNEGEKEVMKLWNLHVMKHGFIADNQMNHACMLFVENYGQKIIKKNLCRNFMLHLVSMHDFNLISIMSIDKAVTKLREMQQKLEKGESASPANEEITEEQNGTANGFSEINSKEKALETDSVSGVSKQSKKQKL
EZH1, sequence (Q92800 whole entry, species assumed): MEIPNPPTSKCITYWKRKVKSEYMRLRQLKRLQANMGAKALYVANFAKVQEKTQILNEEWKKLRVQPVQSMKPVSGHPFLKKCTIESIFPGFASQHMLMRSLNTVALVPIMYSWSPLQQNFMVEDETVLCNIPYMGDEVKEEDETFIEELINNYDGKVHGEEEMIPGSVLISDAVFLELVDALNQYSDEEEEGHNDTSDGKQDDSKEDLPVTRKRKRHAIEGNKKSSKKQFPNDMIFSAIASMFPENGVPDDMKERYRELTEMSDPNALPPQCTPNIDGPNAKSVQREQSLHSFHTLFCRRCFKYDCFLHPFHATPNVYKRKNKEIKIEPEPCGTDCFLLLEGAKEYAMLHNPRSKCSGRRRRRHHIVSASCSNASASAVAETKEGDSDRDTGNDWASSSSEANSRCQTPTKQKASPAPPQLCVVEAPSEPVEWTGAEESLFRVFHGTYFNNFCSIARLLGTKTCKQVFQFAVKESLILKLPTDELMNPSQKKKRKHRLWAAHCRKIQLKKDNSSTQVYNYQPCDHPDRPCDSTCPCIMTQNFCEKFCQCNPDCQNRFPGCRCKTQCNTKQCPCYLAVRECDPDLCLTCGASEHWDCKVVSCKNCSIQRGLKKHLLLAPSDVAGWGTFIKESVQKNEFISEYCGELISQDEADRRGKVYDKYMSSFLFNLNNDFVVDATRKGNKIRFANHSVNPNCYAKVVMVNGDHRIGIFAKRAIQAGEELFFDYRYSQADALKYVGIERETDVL
EZH1, sequence (O75530 whole entry partner, species assumed): as the sequence (O75530 whole entry partner, species assumed) above
EZH1, sequence (Q15022 whole entry partner, species assumed): as the sequence (Q15022 whole entry partner, species assumed) above

Consider `CSc1cc(C)[nH]c(=O)c1CNC(=O)c1cc(-c2cnc(N(C)C)nc2)c2c(c1C)OC(C)([C@H]1CC[C@H](N(C)CC(F)(F)F)CC1)O2` (relative stereo) [Compound 22, 7-(2-(dimethylamino)pyrimidin-5-yl)-2,4-dimethyl-2-(trans-4-(methyl(2,2,2-trifluoroethyl)amino)cyclohexyl)-N-((6-methyl-4-(methylthio)-2-oxo-1,2-dihydropyridin-3-yl)methyl)benzo[d][1,3]dioxole-5-carboxamide], for which the inhibition at 1 µM with SW-13 cells was no more than 30%; with G401 cells, 30 to 70%; in the test on Lovo cells, no less than 70%; in the test on MKN-45 cells, 30 to 70%; in the test on NCI-H1299 cells it was no more than 30%; in the test with MIA-PaCa-2 cells it was no more than 30%. For the same compound, the inhibition at 0.005 µM was 81% against EZH2 and 53.1% against EZH1.

Take `COCCN(C)[C@H]1CC[C@H](C2(C)Oc3c(-c4cnc(N(C)C)nc4)cc(C(=O)NCc4c(SC)cc(C)[nH]c4=O)c(C)c3O2)CC1` (relative stereo) [Compound 26, 7-(2-(dimethylamino)pyrimidin-5-yl)-2-(trans-4-((2-methoxyethyl)(methyl)amino)cyclohexyl)-2,4-dimethyl-N-((6-methyl-4-(methylthio)-2-oxo-1,2-dihydropyridin-3-yl)methyl)benzo[d][1,3]dioxole-5-carboxamide]: the inhibition at 1 µM in the test on SW-13 cells is 30 to 70%; in the test with G401 cells, 30 to 70%; in the test with Lovo cells, no less than 70%; in the test with MKN-45 cells, no more than 30%; in the test with NCI-H1299 cells it was no more than 30%; in the test with MIA-PaCa-2 cells, no more than 30%. For the same compound, the inhibition at 0.005 µM came to 99.6% on EZH2 and 87.3% on EZH1.

Turning to `COCCN(C)[C@H]1CC[C@H](C2(C)Oc3c(-c4ccc(N5CCC(F)(F)CC5)nc4)cc(C(=O)NCc4c(SC)cc(C)[nH]c4=O)c(C)c3O2)CC1` (relative stereo) [Compound 27, 7-(6-(4,4-difluoropiperidin-1-yl)pyridin-3-yl)-2-(trans-4-((2-methoxyethyl)(methyl)amino)cyclohexyl)-2,4-dimethyl-N-((6-methyl-4-(methylthio)-2-oxo-1,2-dihydropyridin-3-yl)methyl)benzo[d][1,3]dioxole-5-carboxamide], the inhibition at 1 µM in the test on SW-13 cells was 30 to 70%; in the test with G401 cells, 30 to 70%; in the test on Lovo cells it was no less than 70%; in the test with MKN-45 cells, 30 to 70%; in the test with NCI-H1299 cells, no more than 30%; in the test on MIA-PaCa-2 cells it was no more than 30%. Besides, the figures for the inhibition at 0.005 µM at EZH2 and on EZH1 were 95.8% and 80.2%, respectively.

For `COCCN(C)[C@H]1CC[C@H](C2(C)Oc3c(-c4ccc(OC)nc4)cc(C(=O)NCc4c(SC)cc(C)[nH]c4=O)c(C)c3O2)CC1` (relative stereo) [Compound 28, 2-(trans-4-((2-methoxyethyl)(methyl)amino)cyclohexyl)-7-(6-methoxypyridin-3-yl)-2,4-dimethyl-N-((6-methyl-4-(methylthio)-2-oxo-1,2-dihydropyridin-3-yl)methyl)benzo[d][1,3]dioxole-5-carboxamide], the inhibition at 1 µM was 30 to 70% in the test on SW-13 cells; 30 to 70% in the test on G401 cells; 30 to 70% in the test on Lovo cells; no more than 30% with MKN-45 cells; no more than 30% in the test with NCI-H1299 cells; no more than 30% in the test with MIA-PaCa-2 cells. The inhibition at 0.005 µM amounted to 99.4% at EZH2 and 77.3% on EZH1.

Take `CSc1cc(C)[nH]c(=O)c1CNC(=O)c1cc(-c2ccc(N3C[C@@H](C)O[C@@H](C)C3)nc2)c2c(c1C)OC(C)(C1CCN(CC(F)(F)F)CC1)O2` (single isomer, unassigned) [Compound 44]: the inhibition at 1 µM was 30 to 70% with SW-13 cells, 30 to 70% in the test on MKN-45 cells, 30 to 70% in the test with NCI-H1299 cells and no more than 30% in the test with MIA-PaCa-2 cells. The inhibition at 0.005 µM on EZH2 is 96.1%; against EZH1, 46.8%. The inhibition at 0.01 µM against EZH2 turned out to be 99.6%; at EZH1, 78.2%. For the same compound, in the test with G401 cells, the “% inhibition rate G401” value is reported as “+++ (+++: ≥70%)”. The “% inhibition rate LoVo” value in the test with Lovo cells is reported as “+++ (+++: ≥70%)”.

As to `CSc1cc(C)[nH]c(=O)c1CNC(=O)c1cc(-c2ccc(N3C[C@@H](C)O[C@@H](C)C3)nc2)c2c(c1C)OC(C)(C1CCN(CC(F)F)CC1)O2` (single isomer, unassigned) [Compound 47], the inhibition at 1 µM in the test on SW-13 cells was 30 to 70%; with Lovo cells, no less than 70%; with MKN-45 cells, 30 to 70%; with NCI-H1299 cells, 30 to 70%; in the test on MIA-PaCa-2 cells, no more than 30%. Moreover, the values for the inhibition at 0.005 µM at EZH2 and against EZH1 were 94.5% and 68.1%, respectively. The inhibition at 0.01 µM on EZH2 came to 99.6%; on EZH1 it was 86.7%. In the test on G401 cells, the “% inhibition rate G401” value is recorded as “+++ (+++: ≥70%)”.

Turning to `CCN1CCC(C2(C)Oc3c(-c4ccc(N5C[C@@H](C)O[C@@H](C)C5)nc4)cc(C(=O)NCc4c(SC)cc(C)[nH]c4=O)c(C)c3O2)CC1` (single isomer, unassigned) [Compound 49], the inhibition at 1 µM in the test with SW-13 cells is 30 to 70%; with G401 cells, 30 to 70%; in the test on MKN-45 cells, no more than 30%; in the test on NCI-H1299 cells, 30 to 70%; in the test with MIA-PaCa-2 cells, no more than 30%. Also, the figures for the inhibition at 0.005 µM against EZH2 and on EZH1 were 99.2% and 78.8%, respectively. The figures for the inhibition at 0.01 µM on EZH2 and against EZH1 were 99.5% and 92.4%, respectively. Also, the “% inhibition rate LoVo” value in the test with Lovo cells is “+++ (+++: ≥70%)”.

Regarding `CSc1cc(C)[nH]c(=O)c1CNC(=O)c1cc(-c2ccc(N3C[C@@H](C)O[C@@H](C)C3)nc2)c2c(c1C)OC(C)(C1CCN(C(C)C)CC1)O2` (single isomer, unassigned) [Compound 51], the inhibition at 1 µM in the test with SW-13 cells is 30 to 70%; in the test with MKN-45 cells it was no more than 30%; in the test on NCI-H1299 cells, 30 to 70%; with MIA-PaCa-2 cells, no more than 30%. For the same compound, the inhibition at 0.005 µM on EZH2 was determined as 99.3%; against EZH1, 80.2%. In addition, the inhibition at 0.01 µM at EZH2 was found to be 99.5%; against EZH1, 93%. The “% inhibition rate G401” value in the test with G401 cells was “+++ (+++: ≥70%)”. The “% inhibition rate LoVo” value in the test with Lovo cells is “+++ (+++: ≥70%)”.

For the compound `CSc1cc(C)[nH]c(=O)c1CNC(=O)c1cc(-c2ccc(N3C[C@@H](C)O[C@@H](C)C3)nc2)c2c(c1C)OC(C)(C1CCN(C3CCCCC3)CC1)O2` (single isomer, unassigned) [Compound 53], the inhibition at 1 µM in the test with SW-13 cells is 30 to 70%; in the test on MKN-45 cells, no more than 30%; in the test with NCI-H1299 cells, 30 to 70%; with MIA-PaCa-2 cells, no more than 30%. Also, the inhibition at 0.005 µM amounted to 98.5% at EZH2 and 78.3% against EZH1. Further, the inhibition at 0.01 µM stood at 99.6% against EZH2 and 91.6% on EZH1. In addition, the “% inhibition rate G401” value in the test with G401 cells is reported as “+++ (+++: ≥70%)”. Moreover, in the test with Lovo cells, the “% inhibition rate LoVo” value is recorded as “+++ (+++: ≥70%)”.

In the case of `CSc1cc(C)[nH]c(=O)c1CNC(=O)c1cc(-c2ccc(N3C[C@@H](C)O[C@@H](C)C3)nc2)c2c(c1C)OC(C)(C1CCN(CCc3ccccc3)CC1)O2` (single isomer, unassigned) [Compound 55], the inhibition at 1 µM in the test on SW-13 cells is 30 to 70%; in the test on Lovo cells, no less than 70%; with MKN-45 cells it was 30 to 70%; in the test on NCI-H1299 cells, 30 to 70%; in the test with MIA-PaCa-2 cells, no more than 30%. Also, the inhibition at 0.005 µM is 58.2% against EZH2 and 31.6% against EZH1. In addition, the inhibition at 0.01 µM against EZH2 came out at 93.3%; against EZH1, 52.2%. In the test on G401 cells, the “% inhibition rate G401” value is reported as “+++ (+++: ≥70%)”.

Regarding `CSc1cc(C)[nH]c(=O)c1CNC(=O)c1cc(-c2ccc(N3C[C@@H](C)O[C@@H](C)C3)nc2)c2c(c1C)OC(C)(C1CCN(CCCC(F)(F)F)CC1)O2` (single isomer, unassigned) [Compound 57], the inhibition at 1 µM in the test on SW-13 cells, in the test on MKN-45 cells, in the test with NCI-H1299 cells and in the test with MIA-PaCa-2 cells was 30 to 70% each time. Also, the inhibition at 0.005 µM at EZH2 is 96%; against EZH1, 58.9%. Also, the inhibition at 0.01 µM against EZH2 is 99.4%; at EZH1 it was 76.2%. In addition, the “% inhibition rate G401” value in the test on G401 cells was “+++ (+++: ≥70%)”. For the same compound, the “% inhibition rate LoVo” value with Lovo cells is “+++ (+++: ≥70%)”.
